Results: US20110053773A1, “METHODS OF IMPROVING NUTRITIONAL VALUE OF PLANTS” (UNIVERSITY OF TENNESSEE RESEARCH FOUNDATION, priority 2009, published 2011)

How the values were obtained:
basil ‘Genovese’ = assay: Yield, fresh weight of basil after insecticide, fungicide, PGRs and safeners (Example 4, Table 10); assay type: in vivo; conditions: DA-A, rates g ai/ha: chlropyrifos 3370, chlorothalonil 7900, paclobutrazol 9.7, mepiquat-chloride 37, Isoxadifen 16, Napthalic anhydride 527, + NIS 0.25 % v/v, check 31.8
Description: (§1) Greenhouse and laboratory studies were conducted to ascertain the tolerance and nutritional quality differences following postemergence applications of the insecticide chlorpyrifos, the fungicide chlorothalonil, the PGRs mepiquat-chloride and paclobutrazol, and the safeners napthalic anhydride and isoxadifen-ethyl on kale ‘Red Russian’ and basil ‘Genovese’. Visual injury was rated based on general phytotoxicity, chlorosis, and visual stunting and each measurement was based on a percent scale from 0 to 100 where 0 equals no visual response and 100 equals complete plant death. Kale and basil were both harvested approximately 4 weeks after treatments and plants were pooled over replicates for content analysis of crude protein, crude amino acid content, acid detergent fiber, neutral detergent fiber, total fatty acids, and/or key mineral content (including Na, Ca, P, Mg, K, Fe, Mn, Zn, and Cu). In addition, the amounts of key individual amino acids (aspartic acid, threonine, glutamic acid, proline, glycine, cysteine, valine, leucine, isoleucine, methionine, and lysine) and composite classifications of fatty acid (saturated fatty acids, monounsaturated fatty acids, polyunsaturated fatty acids) were also analyzed from these sub-samples for kale (Tables 10-14).

basil 'Genovese' [1] = assay: Content analysis of basil: protein, minerals (Example 4, Tables 10-11); assay type: in vivo; conditions: 28 DA-A, rates g ai/ha: chlropyrifos 1120, chlorothalonil 2630, paclobutrazol 3.23, mepiquat-chloride 12.3, Isoxadifen 8, Napthalic anhydride 264, + NIS 0.25 % v/v
Description: as §1

basil 'Genovese' [2] = assay: Visual injury of basil after insecticide, fungicide, PGRs, safeners (Example 4)
Description: as §1

kale 'Red Russian' = assay: Visual injury of kale after insecticide, fungicide, PGRs, safeners (Example 4)
Description: as §1

kale ‘Red Russian’ = assay: Yield, fresh weight of kale after insecticide, fungicide and PGRs (Example 4, Table 12); assay type: in vivo; conditions: 28 DA-A, Untreated Check 106.9
Description: as §1

[3] = 7 DA-A, rates g ai/ha: chlropyrifos 1120, chlorothalonil 2630, paclobutrazol 3.23, mepiquat-chloride 12.3, Isoxadifen 8, Napthalic anhydride 264, + NIS 0.25 % v/v
[4] = 7 DA-A, rates g ai/ha: chlropyrifos 3370, chlorothalonil 7900, paclobutrazol 9.7, mepiquat-chloride 37, Isoxadifen 16, Napthalic anhydride 527, + NIS 0.25 % v/v
[5] = 14 DA-A, rates g ai/ha: chlropyrifos 1120, chlorothalonil 2630, paclobutrazol 3.23, mepiquat-chloride 12.3, Isoxadifen 8, Napthalic anhydride 264, + NIS 0.25 % v/v
[6] = 14 DA-A, rates g ai/ha: chlropyrifos 3370, chlorothalonil 7900, paclobutrazol 9.7, mepiquat-chloride 37, Isoxadifen 16, Napthalic anhydride 527, + NIS 0.25 % v/v
[7] = 28 DA-A, rates g ai/ha: chlropyrifos 1120, chlorothalonil 2630, paclobutrazol 3.23, mepiquat-chloride 12.3, Isoxadifen 8, Napthalic anhydride 264, + NIS 0.25 % v/v
[8] = 28 DA-A, rates g ai/ha: chlropyrifos 3370, chlorothalonil 7900, paclobutrazol 9.7, mepiquat-chloride 37, Isoxadifen 16, Napthalic anhydride 527, + NIS 0.25 % v/v
[9] = 7 DA-A, rates g ai/ha: chlropyrifos 1120, chlorothalonil 2630, paclobutrazol 3.23, mepiquat-chloride 12.3, + NIS 0.25 % v/v
[10] = 7 DA-A, rates g ai/ha: chlropyrifos 3370, chlorothalonil 7900, paclobutrazol 9.7, mepiquat-chloride 37, + NIS 0.25 % v/v
[11] = 14 DA-A, rates g ai/ha: chlropyrifos 1120, chlorothalonil 2630, paclobutrazol 3.23, mepiquat-chloride 12.3, + NIS 0.25 % v/v
[12] = 14 DA-A, rates g ai/ha: chlropyrifos 3370, chlorothalonil 7900, paclobutrazol 9.7, mepiquat-chloride 37, + NIS 0.25 % v/v
[13] = 28 DA-A, rates g ai/ha: chlropyrifos 1120, chlorothalonil 2630, paclobutrazol 3.23, mepiquat-chloride 12.3, + NIS 0.25 % v/v
[14] = 28 DA-A, rates g ai/ha: chlropyrifos 3370, chlorothalonil 7900, paclobutrazol 9.7, mepiquat-chloride 37, + NIS 0.25 % v/v

Compound: CCOP(=S)(OCC)Oc1nc(Cl)c(Cl)cc1Cl [chlropyrifos]
- Yield Fresh weight (basil ‘Genovese’): 32.9 grams
- ADF, Percent Increase Over the Untreated Check (on a % dry matter basis) (basil 'Genovese' [1]): −12 % check
- Calcium, Percent Increase Over the Untreated Check (on a % dry matter basis) (basil 'Genovese' [1]): 7 % check
- Copper, Percent Increase Over the Untreated Check (on a % dry matter basis) (basil 'Genovese' [1]): 8 % check
- Iron, Percent Increase Over the Untreated Check (on a % dry matter basis) (basil 'Genovese' [1]): 108 % check
- Magnesium, Percent Increase Over the Untreated Check (on a % dry matter basis) (basil 'Genovese' [1]): 12 % check
- Manganese, Percent Increase Over the Untreated Check (on a % dry matter basis) (basil 'Genovese' [1]): 28 % check
- NDF, Percent Increase Over the Untreated Check (on a % dry matter basis) (basil 'Genovese' [1]): −8 % check
- Phosphorous, Percent Increase Over the Untreated Check (on a % dry matter basis) (basil 'Genovese' [1]): 11 % check
- Potassium, Percent Increase Over the Untreated Check (on a % dry matter basis) (basil 'Genovese' [1]): 12 % check
- Protein, Percent Increase Over the Untreated Check (on a % dry matter basis) (basil 'Genovese' [1]): 20 % check
- Sodium, Percent Increase Over the Untreated Check (on a % dry matter basis) (basil 'Genovese' [1]): 83 % check
- Soluble protein, Percent Increase Over the Untreated Check (on a % dry matter basis) (basil 'Genovese' [1]): 196 % check
- Zinc, Percent Increase Over the Untreated Check (on a % dry matter basis) (basil 'Genovese' [1]): 33 % check
- Phytotoxicity Chlorosis (basil 'Genovese' [2]; [3]): 8%
- Phytotoxicity General (basil 'Genovese' [2]; [3]): 2%
- Phytotoxicity Stunting (basil 'Genovese' [2]; [3]): 5%
- Phytotoxicity Chlorosis (basil 'Genovese' [2]; [4]): 10%
- Phytotoxicity General (basil 'Genovese' [2]; [4]): 2%
- Phytotoxicity Stunting (basil 'Genovese' [2]; [4]): 13%
- Phytotoxicity Chlorosis (basil 'Genovese' [2]; [5]): 3%
- Phytotoxicity General (basil 'Genovese' [2]; [5]): 7%
- Phytotoxicity Stunting (basil 'Genovese' [2]; [5]): 10%
- Phytotoxicity Chlorosis (basil 'Genovese' [2]; [6]): 8%
- Phytotoxicity General (basil 'Genovese' [2]; [6]): 2%
- Phytotoxicity Stunting (basil 'Genovese' [2]; [6]): 10%
- Phytotoxicity Chlorosis (basil 'Genovese' [2]; [7]): 5%
- Phytotoxicity General (basil 'Genovese' [2]; [7]): 10%
- Phytotoxicity Stunting (basil 'Genovese' [2]; [7]): 8%
- Phytotoxicity Chlorosis (basil 'Genovese' [2]; [8]): 7%
- Phytotoxicity General (basil 'Genovese' [2]; [8]): 2%
- Phytotoxicity Stunting (basil 'Genovese' [2]; [8]): 12%
- Phytotoxicity Chlorosis (kale 'Red Russian'; [9]): 1%
- Phytotoxicity General (kale 'Red Russian'; [9]): 14%
- Phytotoxicity Stunting (kale 'Red Russian'; [9]): 9%
- Phytotoxicity Chlorosis (kale 'Red Russian'; [10]): 0%
- Phytotoxicity General (kale 'Red Russian'; [10]): 13%
- Phytotoxicity Stunting (kale 'Red Russian'; [10]): 6%
- Phytotoxicity Chlorosis (kale 'Red Russian'; [11]): 15%
- Phytotoxicity General (kale 'Red Russian'; [11]): 4%
- Phytotoxicity Stunting (kale 'Red Russian'; [11]): 9%
- Phytotoxicity Chlorosis (kale 'Red Russian'; [12]): 13%
- Phytotoxicity General (kale 'Red Russian'; [12]): 5%
- Phytotoxicity Stunting (kale 'Red Russian'; [12]): 10%
- Phytotoxicity Chlorosis (kale 'Red Russian'; [13]): 6%
- Phytotoxicity General (kale 'Red Russian'; [13]): 4%
- Phytotoxicity Stunting (kale 'Red Russian'; [13]): 8%
- Phytotoxicity Chlorosis (kale 'Red Russian'; [14]): 3%
- Phytotoxicity General (kale 'Red Russian'; [14]): 3%
- Phytotoxicity Stunting (kale 'Red Russian'; [14]): 6%
- Yield Fresh weight (kale ‘Red Russian’; rates g ai/ha: chlropyrifos 1120, chlorothalonil 2630, paclobutrazol 3.23, mepiquat-chloride 12.3, + NIS 0.25 % v/v): 108.2 grams
- Yield Fresh weight (kale ‘Red Russian’; rates g ai/ha: chlropyrifos 3370, chlorothalonil 7900, paclobutrazol 9.7, mepiquat-chloride 37, + NIS 0.25 % v/v): 110.1 grams
